Source: ChEMBL document CHEMBL1137604, “Structure-activity relationship study on the 6-membered heteroaromatic ring system of diphenylpyrazine-type prostacyclin receptor agonists” (Bioorg Med Chem Lett, 2007)

tested on: Plasma; test: Inhibition of ADP-induced platelet aggregation in human platelet rich plasma

Row | Compound | IC50 [nM]
1 | CN(CCCCOCC(=O)O)c1cc(-c2ccccc2)c(-c2ccccc2)nn1 | 8600
2 | CN(CCCCOCC(=O)O)c1ncc(-c2ccccc2)c(-c2ccccc2)n1 | 800
3 | CN(CCCCOCC(=O)O)c1nnc(-c2ccccc2)c(-c2ccccc2)n1 | 1300
4 | CN(CCCCOCC(=O)O)c1ccc(-c2ccccc2)c(-c2ccccc2)n1 | 200
5 | CN(CCCCOCC(=O)O)c1cc(-c2ccccc2)c(-c2ccccc2)cn1 | 1100
6 | CN(CCCCOCC(=O)O)c1cnc(-c2ccccc2)c(-c2ccccc2)c1 | 800
